PMC10179475, “Flavone and Hydroxyflavones Are Ligands That Bind the Orphan Nuclear Receptor 4A1 (NR4A1)” (International Journal of Molecular Sciences, 2023)
“Also recorded” adds a separate entry of the source. Like-named read-outs stand apart in the source and are kept apart here.

Assays:
[1] = molecular target: ligand-binding domain (LBD) of NR4A1 (Homo sapiens, UniProt P22736); experiment: Direct-binding fluorescence assay (quenching of NR4A1 tryptophan fluorescence)
Procedure: (§1) Tryptophan fluorescence spectra were obtained essentially as described. Briefly, the ligand-binding domain of NR4A1 at the final concentration of 0.5 µmol/L in 1.0 mL of phosphate-buffered saline (PBS, pH 7.4) was used for fluorescence measurements. The protein was incubated for 3 min at 25 °C in a temperature-controlled (Quantum Northwest TC125) fluorescence spectrophotometer (Varian Cary Eclipse). The fluorescence spectra were obtained using an excitation wavelength of 285 nm (excitation slit width = 5 nm) and an emission wavelength range of 300–420 nm (emission slit width = 5 nm). Aliquots (0.1 µL/aliquot) of the ligand (10 mmol ligand/L ethanol) were then added to the cuvette containing NR4A1 to reach a final ligand concentration of up to 60 µmol/L. After each aliquot of the ligand, the NR4A1/ligand solution was incubated at 25 °C for 3 min and the loss of tryptophan fluorescence was measured as described above. The addition of DMSO only (up to a final volume of 3.0 µL) had no effect on NR4A1 tryptophan fluorescence. […] Fluorescence intensity at each ligand concentration was used to correct the NR4A1 tryptophan fluorescence intensity as described.

[2] = molecular target: NR4A1 protein (ligand-binding domain: LBD) (Homo sapiens, UniProt P22736); experiment: Isothermal titration calorimetry (ITC) binding assay;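 further: ligand titrated into 20 µmol/L NR4A1 LBD in sodium phosphate buffer pH 7.4 with glycerol and ethanol, thirty injections, heat flow corrected for ligand-into-buffer dilution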
Sequence of NR4A1 protein (ligand-binding domain: LBD) (P22736 360-595 limits assumed): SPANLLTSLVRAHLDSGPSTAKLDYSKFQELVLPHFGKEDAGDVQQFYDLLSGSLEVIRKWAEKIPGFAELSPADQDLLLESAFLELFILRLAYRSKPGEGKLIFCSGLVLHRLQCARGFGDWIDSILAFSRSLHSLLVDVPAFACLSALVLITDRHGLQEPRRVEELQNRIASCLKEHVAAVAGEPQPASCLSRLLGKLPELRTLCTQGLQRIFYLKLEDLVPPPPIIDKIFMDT

GAL4-NR4A1 [3] = molecular target: T1, GAL4-NR4A1 (Homo sapiens, UniProt P22736); experiment: NR4A1-dependent transactivation, GAL4-NR4A1/UAS-luc, Rh30 cells; type: cell-based; parameters: expressed in transfected cells; host or cells: Rh30 rhabdomyosarcoma cells; conditions: for effect on NR4A1-dependent transactivation: 50 µM
T1 sequence (P22736 360-595 limits assumed): as above

GAL4-NR4A1 [4] = molecular target: T1, GAL4-NR4A1; experiment: NR4A1-dependent transactivation, GAL4-NR4A1/UAS-luc, Panc1 cells; type: cell-based; parameters: expressed in transfected cells; host or cells: Panc1 pancreatic cancer cells; Rh30 rhabdomyosarcoma cells; conditions: for effect on luciferase activity: 25 or 50 µM, p < 0.05
Procedure: Figure 3 Hydroxyflavonoid activation of NR4A1-dependent transactivation. Panc1 cells were cotransfected with GAL4-NR4A1 and UAS-luciferase constructs, cells were treated with 25 and 50 µM hydroxyflavonoids and luciferase activity (normalized to β-galactosidase activity) was determined. Results were determined in triplicate for each concentration and are plotted as mean values ±SE. Significant induction or inhibition (p < 0.05) of luciferase activity is illustrated (*).
The UAS-luciferase reporter gene containing 5 GAL4 binding sites and the GAL4-NR4A1 chimera containing the GAL4 DNA-binding domain which linked to the ligand-binding domain (LBD) of NR4A1 were used in transactivation assays in Panc1 pancreatic cancer cells. Panc-1 cells were plated in a 24-well plate (3 × 10^4 cells/well) and grown for 24 h. Cells were then co-transfected with each construct (250 ng) and the β-gal expression construct (25 ng) using GeneJuice (Novagen, Madison, WI, USA) in accordance with the manufacture’s protocol. The medium was removed after 18 h and replaced with a 2.5% charcoal-stripped FBS-supplemented medium containing either DMSO or flavonoids (25 and 50 µM) in DMSO. After 24 h, cells were then lysed, and cell extracts were processed to measure luciferase activity. Luciferase activity was normalized by dividing the β-gal expression and each treatment was determined in three independent experiments. Data were expressed as mean ± SE and significant (p < 0.05) effects were noted.

ERα = tested on: ERα; parameters: method as in PMID 18095219; conditions: cited from earlier work
rhabdomyosarcoma tumor = tested on: rhabdomyosarcoma tumor; parameters: method as in PMID 34906197; conditions: athymic mouse xenograft model; cited from earlier work
GAL4-NR4A1 [5] = molecular target: T1, GAL4-NR4A1; parameters: expressed in transfected cells; host or cells: Rh30 rhabdomyosarcoma cells; method as in PMID 34906197; conditions: Rh30 rhabdomyosarcoma cells, same constructs, cited from earlier work
[6] = Solubility in the fluorescence assay; type: physicochemical; conditions: aqueous
Procedure: as §1

[7] = fluorescence (Trp quenching) assay, Table 1 head prints no unit, µM from text and Figure 5, read-out: KD, direct binding assay
[8] = fluorescent binding assay, read-out: KD (Figure 1)

Sequence of ligand-binding domain (LBD) of NR4A1 (P22736 360-595 limits assumed): as above

Structure (SMILES) | Kd [1, 7] [µM] | ITC assay ΔG ([2]; 25 °C) [kcal/mol] | effect on luciferase activity (GAL4-NR4A1 [4]) | Kd ([2]; 25 °C, read-out: ITC assay Kd1) [nM] | effect on NR4A1-dependent transactivation (GAL4-NR4A1 [3]) | also measured
O=c1cc(-c2ccccc2)oc2cc(O)ccc12 [7-Hydroxyflavone] | 7.4 | -10.1 | significantly induced luciferase activity |  |  | Kd [2]: 42 nM; induction of luciferase activity (GAL4-NR4A1 [3]): < 2.4 fold; induction of luciferase activity (GAL4-NR4A1 [4]): < 2.4 fold
O=c1cc(-c2ccc(O)cc2)oc2ccccc12 [4′-Hydroxyflavone] | 13 | -9.42 | significantly induced luciferase activity | 150 | potent inhibition | 
O=c1c(O)c(-c2ccccc2)oc2cc(O)cc(O)c12 [3,5,7 -Trihydroxyflavone (Galangin), 3,5,7-Trihydroxyflavone] | 0.36 | -12.2 | decreased luciferase activity | 1 | potent inhibition | 
O=c1cc(-c2ccc(O)cc2)oc2cc(O)cc(O)c12 [5,7,4′-Trihydroxyflavone (Apigenin), 5,7,4′-Trihydroxyflavone] | 1.77 | -8.53 |  | 570 | decreased transactivation | Kd [1, 8]: 0.08 µM
O=c1cc(-c2cccc(O)c2)oc2ccccc12 [3′-Hydroxyflavone] | 45.8 | -8.84 |  | 330 |  | Kd [1, 8]: 45.8 µM
O=c1cc(-c2ccc(O)c(O)c2)oc2cc(O)cc(O)c12 [5,7,3′4′-Tetrahydroxyflavone (Luteolin), 5,7,3′4′-Tetrahydroxyflavone] | 5.1 | -10.5 | significantly induced luciferase activity | 19 |  | 
O=c1cc(-c2ccccc2)oc2cc(O)c(O)c(O)c12 [5,6,7 -Trihydroxyflavone (Baicalein), 5,6,7-Trihydroxyflavone] | 1.85 | -9.42 | significantly induced luciferase activity | 130 |  | 
O=c1cc(-c2ccccc2)oc2cc(O)cc(O)c12 [5,7 Dihydroxyflavone] | 11.3 | -12.3 |  | 1 |  | 
O=c1cc(-c2ccccc2)oc2cccc(O)c12 [5-Hydroxyflavone] | 1.4 | -6.45 |  | 18000 |  | 
O=c1c(O)c(-c2ccccc2)oc2ccc(O)cc12 [3,6-Dihydroxyflavone] | 0.66 | -4.57 |  | 444000 | potent inhibition | 
O=c1cc(-c2ccccc2)oc2ccc(O)cc12 [6-Hydroxyflavone] | 12.5 | -10.3 | significantly induced luciferase activity | 32 | decreased transactivation | 
O=c1c(O)c(-c2ccc(O)c(O)c2)oc2cc(O)cc(O)c12 | 0.81 | -8.8 | significantly induced luciferase activity | 350 | decreased transactivation | ER binding (ERα): did not bind ERα; tumor growth (rhabdomyosarcoma tumor): inhibited tumor growth; effect on luciferase activity / NR4A1-dependent transactivation (previous studies) (GAL4-NR4A1 [5]; listed as quercetin): decreased luciferase activity; also recorded: decreased NR4A1-dependent transactivation
O=c1cc(-c2ccccc2)oc2ccccc12 [Flavone] | 3.4 | -9.73 |  | 75 |  | 
O=c1cc(-c2ccc(O)cc2)oc2cc(O)ccc12 [7,4’-Dihydroxyflavone] | 9.1 | -8.63 |  | 490 |  | 
O=c1c(O)c(-c2ccc(O)c(O)c2)oc2cccc(O)c12 [3,5,3′,4-tetrahydroxyflavone] |  |  |  |  | potent inhibition | 
O=c1c(O)c(-c2ccc(O)cc2)oc2cc(O)cc(O)c12 [3,5,7,4′-Tetrahydroxyflavone] | 3.1 | -5.47 |  | 97100 | decreased transactivation | tumor growth (rhabdomyosarcoma tumor): inhibited tumor growth; effect on luciferase activity / NR4A1-dependent transactivation (previous studies) (GAL4-NR4A1 [5]; listed as kaempferol): decreased luciferase activity; also recorded: decreased NR4A1-dependent transactivation
O=c1cc(-c2ccccc2)oc2c(O)c(O)ccc12 [7,8-Dihydroxyflavone] | 17.6 | -10.1 |  | 42 |  | 
O=c1cc(-c2ccc(O)c(O)c2)oc2ccccc12 [3′,4′-Dihydroxyflavone] | 0.96 | -6.86 |  | 9500 |  | induction of luciferase activity (GAL4-NR4A1 [3]): < 2.4 fold; induction of luciferase activity (GAL4-NR4A1 [4]): < 2.4 fold
O=c1c(O)c(-c2ccccc2)oc2cc(O)ccc12 [3,7-Dihydroxyflavone] | 2.8 | -9.2 |  | 180 | potent inhibition | 
O=c1c(O)c(-c2ccccc2)oc2ccccc12 [3-Hydroxyflavone] |  | -10.4 |  | 22.5 |  | solubility [6]: insoluble; solubility ([6]; listed as 3-hydroxyflavone): aqueous insolubility
Clc1cc(Cl)cc(C(c2c[nH]c3ccccc23)c2c[nH]c3ccccc23)c1 [DIM-3,5-CI2, 1,1-bis(3′-indolyl)-1-(3,5-dichlorophenyl)methane, reference compound] |  |  |  |  | decreased transactivation | 
O=c1cc(-c2cccc(O)c2)oc2cc(O)ccc12 [7,3′-Dihydroxyflavone] | 21.4 | -9.25 |  | 170 |  | 
